According to patent publication US20260193668A1, “NOVEL PEPTIDES AND USE THEREOF FOR MODULATING PROTEIN ACCUMULATION” (UNIVERSITE TOULOUSE III - PAUL SABATIER, priority 2022, published 2026):

What follows are substances tested on Aphanomyces euteiches (assay: M. truncatula seedlings infected with A. euteiches). Settings: 100 μM peptide.
Assay type: in vivo
Text: (§1) (a) FRET-FLIM analysis of the interaction between cPEPnsp1-FAM and NSP1 (left) or NSP1ΔcPEP (right) in planta. (b) qRT-PCR quantification of NSP1 expression in M. truncatula roots treated with cPEPnsp1 or Scrambled cPEPnsp1. (c) GUS quantification of peptide-treated M. truncatula roots carrying the Pro NSP1-NSP1-GUS fusion. (d, e) Quantification of NSP1 expression in N. benthamiana leaves after infiltration of different constructs: ‘wild type’ i.e. version of NSP1 wherein the cPEP sequence has been deleted (NSP1 ΔcPEP) or version of NSP1 wherein the cPEP sequence has been replaced by an artificial sequence (NSP1 ΔcPEP-cPEPartificial), with an empty vector (control) or cPEPnsp1 or cPEPartificial. (f, g) Formation of lateral roots of M. truncatula WT seedlings, nsp1 or overexpressing NSP1, in response to cPEPnsp1 or Scrambled cPEPnsp1. (h, i) Quantification of nodules on roots of M. truncatula roots treated with an irrelevant peptide or cPEPskl. (j) Root development of M. truncatula seedlings infected with A. euteiches and treated with an irrelevant peptide or cPEPrh10. (k) Relative expression of A. euteiches α-tubulin in M. truncatula seedlings infected with A. euteiches and treated with an irrelevant peptide or cPEPrh10.
Quantification of mRNAs was performed by qRT-PCR using appropriate primer pairs selected from the sequences: SEQ ID NOs: 367 to 374. […]

| Substance | root development (resistance to the pathogen) |
| --- | --- |
| SEQ ID NO: 412 (QRLSLRNPLK; cPEPrh10) | increased |

Same assay, conditions: 100 μM peptide, 7 days after inoculation

| Substance | expression of A. euteiches α-tubulin in roots |
| --- | --- |
| SEQ ID NO: 412 (QRLSLRNPLK; cPEPrh10) | decreased |

The substances below were run on luciferase mRNA (assay: RNA-IP followed by PCR on plants treated with HA-tagged peptides). Settings: anti-HA magnetic beads.
Assay type: binding, Arabidopsis thaliana
Text: Analysis of luciferase expression in A. thaliana constitutively expressing the LUC transgene. (a) Agarose gel after PCR amplification of RNA obtained by immunoprecipitation using anti-HA magnetic beads, followed by RT-PCR, on plants treated with the indicated peptide (SC-HA: Scrambled cPEPluc-HA; Luc-HA: cPEPluc-HA). (b) Relative expression of the luciferase transgene in plants treated with the indicated peptide, quantified by RT-qPCR. (c-e) Relative quantification of LUC in plants treated with the indicated peptide. (f, g) Ratio between induction and quantification of LUC in plants treated with cPEPluc compared to plants treated with Scrambled cPEPluc, using different peptide concentrations (f) or taken at different time points (g). (h) Transcriptomic analysis of plants treated with cPEPluc-HA compared to plants treated with Scrambled cPEPluc-HA. (i) Proteomic analysis of plants treated with cPEPluc-HA compared to plants treated with Scrambled cPEPluc-HA. Protein expression was analysed by Western blots and quantified using ImageJ.
RNA co-immunoprecipitation was adapted from Merret et al. (Plant Physiol. 174:1216-1225. 2017). 400 mg of tissue powder was incubated in 3 mL of lysis buffer (200 mM Tris, pH 9.0, 110 mM potassium acetate, 0.5% Triton X-100, 0.1% Tween© 20, 5 mM DTT, 1.5% protease inhibitor and 80 units·ml-1 RNasin). […]

| Substance | interaction with luciferase mRNA (RNA-IP followed by PCR) |
| --- | --- |
| cPEPluc-HA: HA-tagged cPEPluc (KRYGLNTNHRYPYDVPDYA; cPEPluc-HA) | able to interact |
| SEQ ID NO: 386: Scrambled peptide corresponding to HA-tagged cPEPluc (RNYKNGRTHLYPYDVPDYA; Scrambled cPEPluc-HA) [reference compound] | could not |

What follows are substances tested on A. thaliana seedlings (assay: Relative chlorophyll content of A. thaliana). Settings: sprayed with 10 μM peptide three times a week.
Assay type: in vivo, Arabidopsis thaliana
Description: (§2) (a, b) Length of primary roots of A. thaliana seedlings treated with a Scrambled cPEPdcl1 or with a cPEPdcl1. (c) Relative chlorophyll content of A. thaliana seedlings treated with the corresponding peptide. (d) Resumption of growth of A. thaliana seedlings after heat shock at 45° C. for 45 min and treated with the corresponding peptide. (e) Relative lesion area of A. thaliana seedlings infected with B. cinerea and treated with the indicated peptide. (f) Measurement of the flowering day of A. thaliana plants treated with the indicated peptides. (g, h) Flowering day of A. thaliana plants treated with an irrelevant peptide or a mixture of cPEPs (targeting EIN2, BR11, BAK1 and WUS). (i, j) Leaf area of A. thaliana plants treated with an irrelevant peptide or a mixture of cPEPs (targeting EIN2, BR11, BAK1 and WUS).
N. benthamiana plants were treated by spraying the leaves 24 h before harvesting. For Luc assays, 100 μL of MS/2 liquid medium containing the peptides was added to each well. 5 μL of luciferin was added and luciferase activity was read 30 min later using a spectrophotometer. […] To quantify the protein level induced by cPEPs in Arabidopsis, rosettes were sprayed daily with 100 μM of peptide or its control for 5 days. […] Chlorophyll content was measured using the SPAD chlorophylometer (Konica Minolta). Leaf area was measured using ImageJ software. […]

| Substance | chlorophyll content |
| --- | --- |
| SEQ ID NO: 406 (EKVVERRQRR; cPEPabi5) | decreasing |
| SEQ ID NO: 407 (EWKKVKGKMS; cPEPsgr1) | increasing |

The substances below were run on M. truncatula seedlings (assay: Formation of lateral roots of M. truncatula seedlings). Settings: M. truncatula WT seedlings.
Assay type: in vivo, Medicago truncatula
Text: as §1, with “(j) Root development of M. truncatula seedlings infected with A. euteiches and treated with an irrelevant peptide or cPEPrh10. (k) Relative expression of A. euteiches α-tubulin in M. truncatula seedlings infected with A. euteiches and treated with an irrelevant peptide or cPEPrh10.” left out
In order to verify whether cPEPs can target any protein, the activity of 12 cPEPs targeting 12 different proteins for which antibodies were available was studied and validated in three different plant species. The question was whether the increase in the quantity of proteins observed after treatment with cPEP was sufficient to modulate plant development. […]

| Substance | amount of lateral roots |
| --- | --- |
| cPEPnsp1 (DYGTKSNIRS; cPEPnsp1_3) | decreased |

Same assay, conditions: nsp1 mutant and NSP1-overexpressing M. truncatula

| Substance | sensitivity of lateral root formation to the peptide |
| --- | --- |
| cPEPnsp1 (DYGTKSNIRS; cPEPnsp1_3) | insensitive |

Each substance was assayed on Botrytis cinerea (assay: Infection assay of A. thaliana leaves inoculated with B. cinerea). Settings: 100 μM peptide, compared with plants treated with an irrelevant peptide.
Assay type: in vivo
Description: as §2
(a) Quantification of CPK3 expression, using CPK3 antibodies, in peptide-treated A. thaliana plants. (b-c) Infection assay of peptide-treated A. thaliana leaves inoculated with B. cinerea spores.
Wild-type or mutant A. thaliana leaves were sprayed daily with 100 μM of peptide or 100 μM of the corresponding scramble version for 3 days. Six hours after the last treatment, five mature leaves per plant were inoculated with a 5 μL droplet of 2.5×10^5 spores/mL of Botrytis cinerea strain B05.10 diluted in 100 μM of peptide or its corresponding scramble version. After inoculation, plants were maintained at 100% relative humidity. Then, a 2 μL droplet of 100 μM of peptide or 100 μM of the corresponding scramble version was deposited daily on B. cinerea-infected leaves for 3 days (until symptoms appeared). Leaves were removed from the plants to determine lesion areas using the ImageJ programme. For tomato, the protocol was the same except that inoculation was carried out with 5,000 B. cinerea spores, without peptides. Peptides were added 1 h after inoculation (1 μL of 500 μM) and each day for two days with 5 μL of 100 μM peptide. For infection of M. truncatula with A. euteiches, plants were grown on agar medium and treated with 10 μL of 100 μM peptide, 24 h before, 24 h and 72 h after infection with 10 μL (1000 spores) of A. euteiches spores. Plants were harvested 7 days after inoculation for RNA extraction.

| Substance | lesion size (plant defence against Botrytis cinerea) |
| --- | --- |
| cPEPjar1 (PETNFERDSS; cPEPjar1) [SEQ ID NO: 192, cPEP targeting the A. thaliana plant defence regulator JAR1] | decrease |
| SEQ ID NO: 188 (PLTGGRRDSK; cPEPmapkkk5_1) | decrease |
| SEQ ID NO: 187 (KEPEQRKRKS; cPEPmapkkk3) | decrease |
| SEQ ID NO: 194 (ERKFRLHKSP; cPEPabcg34) | decrease |
| SEQ ID NO: 162 (RSSKTELWTR; cPEPcpk3) | decrease |
| SEQ ID NO: 195 (IRLDTGEEPD; cPEPagb1) | decrease |

These substances were tested on A. thaliana plants (assay: Flowering day of A. thaliana plants). Settings: sprayed with 10 μM peptide three times a week until flowering.
Assay type: in vivo, Arabidopsis thaliana
Description: as §2
N. benthamiana plants were treated by spraying the leaves 24 h before harvesting. For Luc assays, 100 μL of MS/2 liquid medium containing the peptides was added to each well. 5 μL of luciferin was added and luciferase activity was read 30 min later using a spectrophotometer. All other assays were performed by spraying or watering the plants. To quantify the protein level induced by cPEPs in Arabidopsis, rosettes were sprayed daily with 100 μM of peptide or its control for 5 days. Leaves were harvested 6 h after the last treatment for western blot analysis. For the flowering assay and chlorophyll content, 10-day-old Arabidopsis plants were sprayed with 500 μL of 10 μM peptide three times a week until flowering. Chlorophyll content was measured using the SPAD chlorophylometer (Konica Minolta). Leaf area was measured using ImageJ software. Barbarea vulgaris and A. hypochondriacus seedlings were treated immediately after sowing and 3 times a week with 500 μL of a 20 μM mixture of each peptide. For western blotting, a heat shock was performed by placing 20-day-old plants grown in 24-well plates on MS/2 for 90 min at 37° C. before harvesting. The plants were treated with 100 μM of peptide for 24 h. For the heat shock resistance test on A. thaliana, 3-day-old seedlings were treated for three days with 100 μM of peptide before placing the plants at 45° C. for 45 min. The plants were placed in a growth chamber to recover and treated 24 h after heat shock with 100 μM of peptide. For soybean heat shock, one-week-old seedlings were treated for 48 h, 24 h and 30 min before being placed at 45° C. for 24 h. For soybean growth, seedlings were treated 3 times a week for a fortnight with 500 μL of 100 μM peptide.

| Substance | plant development, measured by the day of flowering |
| --- | --- |
| SEQ ID NO: 198 (RHRNLVRLQG; AhBRI1) | decrease |
| SEQ ID NO: 184 (LRETDLKDRR; cPEPphyb) | decrease |
| SEQ ID NO: 183 (SDFSSKYRED; cPEPga2ox7) | decrease |
| SEQ ID NO: 181 (NKGKTVEGWR; cPEPtap46) | decrease |
| cPEPmrb1 (NSEITKTAND; cPEPmrb1) [SEQ ID NO: 180] | increased |
| cPEPshy2 (EENRSELLQR; cPEPshy2) [SEQ ID NO: 178] | increased |
| SEQ ID NO: 199 (ARGLAYLHE; AhBAK1) | decrease |
| SEQ ID NO: 182 (ASGNETDEYD; cPEPspt) | decrease |
| SEQ ID NO: 186 (HGEARDSEEV; cPEPshr) | decrease |
| SEQ ID NO: 204 (NPVERSRHRD; cPEPein2_1) | decrease |
| SEQ ID NO: 185 (VERRETPSGE; cPEPhag5) | decrease |
| cPEPwus (RWTPTTEQIK; cPEPwus) [SEQ ID NO: 196] | decrease |
